Data: the supplement of paper PMC4862054

Experiments:
Conditions in all cases: incubation time: 72 h
HCC1143 = assay: normalised viability (% of control), CellTiter-Blue; higher = more viable cells (about 100 = DMSO control)
How it was run: (§1)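 Seeded at 20 µl suspension per well onto compound-loaded 384-well plates, breast cancer cell lines were incubated 72 h. CellTiter-Blue fluorescence at 560/590 nm was then read, with each plate normalised to vehicle (100) and a positive kill control (0). Normalised viability is reported at a single listed concentration of the series.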

BT-474 = assay: as above
How it was run: as §1

MDA-MB-231 [1] = assay: as above
How it was run: as §1

MDA-MB-468 [2] = assay: as above
How it was run: as §1

CAL-85-1 = assay: as above
How it was run: as §1

HCC1937 = assay: as above
How it was run: as §1

MDA-MB-436 = assay: as above
How it was run: as §1

MDA-MB-453 = assay: as above
How it was run: as §1

HDQ-P1 = assay: as above
How it was run: as §1

CAL-148 = assay: as above
How it was run: as §1

DU-4475 = assay: as above
How it was run: as §1

CAL-120 = assay: as above
How it was run: as §1

BT-549 = assay: as above
How it was run: as §1

CAL-51 = assay: as above
How it was run: as §1

Hs578T = assay: as above
How it was run: as §1

MFM-223 = assay: as above
How it was run: as §1

SK-BR-3 [3] = assay: as above
How it was run: as §1

HCC1599 [4] = assay: as above
How it was run: as §1

MDA-MB-231 [5] = assay: drug sensitivity score (DSS), CellTiter-Glo (DSS (AUC-based score)); higher = stronger drug effect (viability inhibition or cytotoxicity); extreme values may be limits of the assay
How it was run: (§2)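 Each compound occupied 5 concentrations in 10-fold steps over its own 10,000-fold range in 384-well plates, into which breast cancer cell lines were seeded as 20 µl suspension. Following 72 h of incubation, CellTox Green fluorescence (485/520 nm) was measured, and CellTiter-Glo luminescence was measured after 10 min at room temperature. Plates were individually normalised to 0.1 % DMSO and a positive kill control. From the area under the fitted dose-response curve, a drug sensitivity score was calculated.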

MDA-MB-468 [6] = assay: as above
How it was run: as §2

SK-BR-3 [7] = assay: as above
How it was run: as §2

HCC1599 [8] = assay: as above
How it was run: as §2

C[C@@H](C(=O)O)c1ccc(-c2ccccc2)c(F)c1 [Tarenflurbil]
normalised viability [%]
Conditions	3 nM	10 nM	30 nM	100 nM	1000 nM	10000 nM
BT-474	–	112	–	–	107	113
BT-549	–	97.6	–	–	104	112
CAL-51	118	–	115	111	–	–
CAL-85-1	87.2	–	88.4	93	–	–
CAL-120	–	94	–	–	92.2	99.4
CAL-148	80	–	96.6	87.3	–	–
DU-4475	101	–	95.6	108	–	–
HCC1143	–	86.4	–	–	95.3	86.9
HCC1599 [4]	–	94.6	–	–	118	106
HCC1937	–	84.3	–	–	92.9	102
HDQ-P1	106	–	106	98.9	–	–
Hs578T	–	97.7	–	–	106	92.6
MDA-MB-231 [1]	–	97.8	–	–	88.6	103
MDA-MB-436	–	104	–	–	90.4	138
MDA-MB-453	106	–	89.2	85.6	–	–
MDA-MB-468 [2]	–	100	–	–	119	90
MFM-223	–	93.6	–	–	97.2	93.2
SK-BR-3 [3]	–	99.3	–	–	105	126

Conditions	drug sensitivity score
HCC1599 [8]	0
MDA-MB-231 [5]	0
MDA-MB-468 [6]	0
SK-BR-3 [7]	0

Cn1nnc2c(C(N)=O)ncn2c1=O [Temozolomide]
normalised viability [%]
Conditions	3 nM	10 nM	30 nM	100 nM	1000 nM	10000 nM
BT-474	–	94.7	–	–	100	87.5
BT-549	–	105	–	–	91.6	74.7
CAL-51	91.1	–	96.3	91.4	–	–
CAL-85-1	102	–	98.2	107	–	–
CAL-120	–	101	–	–	104	100
CAL-148	94	–	88.8	93	–	–
DU-4475	108	–	95.3	113	–	–
HCC1143	–	90.5	–	–	95.9	102
HCC1599 [4]	–	103	–	–	89.8	117
HCC1937	–	88.3	–	–	105	116
HDQ-P1	95.6	–	88.5	27.3	–	–
Hs578T	–	104	–	–	92.7	85.1
MDA-MB-231 [1]	–	101	–	–	88	91
MDA-MB-436	–	102	–	–	91.3	101
MDA-MB-453	112	–	108	100	–	–
MDA-MB-468 [2]	–	92.3	–	–	89.5	99.1
MFM-223	–	98.4	–	–	96.7	103
SK-BR-3 [3]	–	95.1	–	–	99.8	113

Conditions	drug sensitivity score
HCC1599 [8]	0
MDA-MB-231 [5]	0
MDA-MB-468 [6]	0
SK-BR-3 [7]	0

CC[C@@H]1C(=O)N(C)c2cnc(Nc3ccc(C(=O)N[C@H]4CC[C@H](N5CCN(CC6CC6)CC5)CC4)cc3OC)nc2N1C(C)C [Volasertib]
normalised viability [%]
Conditions	0.3 nM	1 nM	3 nM	10 nM	100 nM	1000 nM
BT-474	–	127	–	–	56.6	96.8
BT-549	–	94.9	–	–	36.9	41.6
CAL-51	116	–	99.8	100	–	–
CAL-85-1	96.4	–	86.7	82.3	–	–
CAL-120	–	91.1	–	–	26.8	24.7
CAL-148	98.2	–	94.8	72	–	–
DU-4475	98.4	–	88.2	86.1	–	–
HCC1143	–	86.3	–	–	41.2	41.2
HCC1599 [4]	–	94.6	–	–	86.2	74
HCC1937	–	131	–	–	30.8	34.9
HDQ-P1	108	–	84	76.4	–	–
Hs578T	–	111	–	–	40.3	35.1
MDA-MB-231 [1]	–	114	–	–	36.3	45.9
MDA-MB-436	–	113	–	–	83.5	80.8
MDA-MB-453	117	–	89.9	46.2	–	–
MDA-MB-468 [2]	–	104	–	–	45	51.9
MFM-223	–	88.8	–	–	48.9	56.2
SK-BR-3 [3]	–	105	–	–	20.7	24.1

Conditions	drug sensitivity score
HCC1599 [8]	10.3
MDA-MB-231 [5]	9.58
MDA-MB-468 [6]	14.8
SK-BR-3 [7]	19.9
